Data set [1] addresses tyrosinase. Nature of the data set: Inhibitory activity against tyrosinase (mushroom enzyme, L-tyrosine substrate, absorbance at 475 nm). Type of data set: biochemical, mushrooms. Conditions: pH 6.8, 37° C., 10 minutes. Here is the method: That is, a sample is introduced into a microplate, to which are added a phosphate buffer solution(pH 6.8) and a L-tyrosine solution.
Inhibitory Activity Against Tyrosinase
Enzyme tyrosinase extracted from mushrooms(manufactured by Sigma) was used in the present experiment. First, a substrate L-tyrosine was dissolved in phosphate buffer solution(0.05M, pH 6.8) to a concentration of 1.5 mM and then 0.01 ml of this solution was introduced to a 0.3 ml cuvette in a spectrophotometry. Dopa as a cofacter was prepared as a solution in a concentration of 0.06 mM and 0.01 ml of this dopa solution was added to the substrate solution. To the resulting mixture were added the inhibitor of formula (I) and phosphate buffer solution to a total volume of 0.31 ml. The reaction was started by adding 0.1 ml of an enzyme solution in which tyrosinase was dissolved in phosphate buffer solution in a concentration of 60 U/ml. 0.1 ml of phosphate buffer solution instead of the enzyme solution was added to the blank sample. The reaction was carried out for 10 minutes at 37° C. and then absorbance at 475 nm was measured using Spectrophotometer (Beckman DU-7500).
[formula] in the above formula A represents absorbance at 475 nm when the inhibitor is added, and
B represents absorbance at 475 nm when the inhibitor is not added.

In data set [2] the test system is B-16 mouse melanoma cells. Nature of the data set: Inhibitory effect against melanin biosynthesis in B-16 mouse melanoma cell. Type of data set: cell-based. Conditions: 72 h, read-out: IC50 (inhibition of melanin biosynthesis). Here is the method:
Inhibitory Effect Against Melanin Biosynthesis in B-16 Mouse Melanoma Cell
B-16 mouse melanoma cells were cultured to a density of 10^6 cells/dish in culture media compounds in various concentrations were respectively added thereto and then cultured for 3 days. The cells were separated from the culture dish by the treatment with trypsin and then centrifuged to extract melanin(wherein a pellet was extracted using 2N perchloric acid). 1 ml of 1N aqueous sodium hydroxide solution was added to the melanin extracted and the resulting mixture was heated to dissolve melanrin. The absorbance at 400 nm was measured by a spectrophotometer and the amount of the melanin produced was represented by the absorbance per unit cell numbers(10^6 cell).

The conditions of data set [3]: background; cited from earlier work.
The conditions of data set [4]: literature, J. Soc. Cosmet. Chem., 42, 361, 1991; cited from earlier work.
[5] abbreviates: B-16 mouse melanoma cells, 3 days, absorbance at 400 nm.

≈ marks a conversion by molar mass, not a printed value. Where two headings read alike, the source gives them in different places.

Take `Cc1c(C)c2c(c(CCCc3ccc(O)cc3O)c1O)CCC(C)(C)O2` [Compound 9, 4-[3-(6-hydroxy-2,2,7,8-tetramethyl-chroman-5-yl)-propyl]-benzene-1,3-diol]: the “IC50 (inhibitory activity against tyrosinase)” value in data set [1] is 0.3 µg/mL (≈ 0.842 µM). Besides, the IC50 in data set [2] (setting [5]) stood at 3 µg/mL (≈ 8.42 µM).
`Cc1c(C)c2c(c(C(O)CCc3ccc(O)cc3O)c1O)CCC(C)(C)O2` (centres unmarked) [Compound 8, 4-[3-hydroxy-3-(6-hydroxy-2,2,7,8-tetramethyl-chroman-5-yl)-propyl]-benzene-1,3-diol]: the “IC50 (inhibitory activity against tyrosinase)” value in data set [1] turned out to be 0.3 µg/mL (≈ 0.805 µM). Besides, the IC50 in data set [2] (setting [5]) came out at 2 µg/mL (≈ 5.37 µM).
With `Cc1c(C)c(O)c(CCCc2ccc(O)cc2O)c(C)c1O` [Compound 2, 4-13-(2,5-dihydroxy-3,4,6-trimethyl-phenyl)-propyll-benzene-1,3-diol], the “IC50 (inhibitory activity against tyrosinase)” value in data set [1] came out at 1 µg/mL (≈ 3.31 µM). For the same compound, the half-inhibitory concentration (IC50) in data set [2] (setting [5]) turned out to be 5 µg/mL (≈ 16.5 µM).
Consider `COc1c(C)c(C)c(O)c(C)c1C(O)CCc1ccc(O)cc1O` (centres unmarked) [Compound 3, 4-[3-hydroxy-3-(5-hydroxy-2-methoxy-3,4,6-trimethyl-phenyl)-propyl]-benzene-1,3-diol], for which the “IC50 (inhibitory activity against tyrosinase)” value in data set [1] came out at 50 µg/mL (≈ 150 µM). Also, in data set [2] (setting [5]), the IC50 turned out to be 40 µg/mL (≈ 120 µM).
Take `COc1c(C)c(C)c(O)c(C)c1CCCc1ccc(O)cc1O` [Compound 4]: the “IC50 (inhibitory activity against tyrosinase)” value in data set [1] came to 20 µg/mL (≈ 63.2 µM). Besides, the 50% inhibitory concentration (IC50) in data set [2] (setting [5]) amounted to 45 µg/mL (≈ 142 µM).
In the case of `Cc1c(C)c(O)c(C(O)CCc2ccc(O)cc2O)c(C)c1O` (centres unmarked) [Compound 1, 4-[3-hydroxy-3-(2,5-dihydroxy-3,4,6-trimethyl-phenyl)-propyl]-benzene-1,3-diol], in data set [1], the “IC50 (inhibitory activity against tyrosinase)” value is 0.5 µg/mL (≈ 1.57 µM). The 50% inhibitory concentration (IC50) in data set [2] (setting [5]) is 10 µg/mL (≈ 31.4 µM).
Consider `OC[C@H]1O[C@@H](Oc2ccc(O)cc2)[C@H](O)[C@@H](O)[C@@H]1O` [Arbutin, reference compound], for which the whitening effect entry in data set [3] is recorded as “little whitening effect”. Also, the concentration for half-maximal inhibition (IC50) in data set [2] (setting [5]) is 300 µg/mL (≈ 1100 µM).
Turning to `CCOc1c(C)c(C)c(O)c(C(O)CCc2ccc(O)cc2O)c1C` (centres unmarked) [Compound 7], in data set [1], the “IC50 (inhibitory activity against tyrosinase)” value came out at 1.0 µg/mL (≈ 2.89 µM). Also, the concentration for half-maximal inhibition (IC50) in data set [2] (setting [5]) amounted to 20 µg/mL (≈ 57.7 µM).
In the case of `Oc1ccc(O)cc1` [Hydroquinone, reference compound], the “IC50 (inhibitory activity against tyrosinase)” value in data set [1] is 0.5 µg/mL (≈ 4.54 µM). Besides, in data set [4], the side effects result is on record as “degeneration or lethal mutation of melanin, damage of the cellular function”.
As for `COc1c(C)c(C)c(O)c(CCCc2ccc(O)cc2O)c1C` [Compound 6, 4-[3-(2-hydroxy-5-methoxy-3,4,6-trimethyl-phenyl)-propyl]-benzene-1,3-diol], the “IC50 (inhibitory activity against tyrosinase)” value in data set [1] stood at 0.1 µg/mL (≈ 0.316 µM). Further, the half-inhibitory concentration (IC50) in data set [2] (setting [5]) was 10 µg/mL (≈ 31.6 µM).
As for `O=c1cc(CO)occ1O` [Kojic acid, reference compound], in data set [2] (Mus musculus), the IC50 was 15 µg/mL (≈ 106 µM).
As for `COc1c(C)c(C)c(O)c(C(O)CCc2ccc(O)cc2O)c1C` (centres unmarked) [Compound 5, 4-[3-hydroxy-3-(2-hydroxy-5-methoxy-3,4,6-trimethyl-phenyl)-propyl]-benzene-1,3-diol], the “IC50 (inhibitory activity against tyrosinase)” value in data set [1] worked out at 0.1 µg/mL (≈ 0.301 µM). In addition, in data set [2] (setting [5]), the concentration for half-maximal inhibition (IC50) is 5 µg/mL (≈ 15 µM).

The IC50 is the concentration that gives 50% inhibition.

Source of the values: patent publication US6093836A, “1,3-diphenylpropane derivatives having inhibitory activity against tyrosinase and process for preparation thereof” (priority 1997, dated 2000).
